The text below walks through data of US11472769B2, “SSAO inhibitors and use thereof” (Eccogene (Shanghai) Co., Ltd., priority 2019, dated 2022).

Format in all cases: biochemical
One assay addresses recombinant hSSAO (Homo sapiens (Human), UniProt Q16853). Briefly: SSAO Activity Assay (MAO-Glo assay kit). Particulars: 40 μM substrate, 30 mins pre-incubation. As for the experimental part: (§1) The biological activities of the compounds of the present application can be assessed with methods and assays known in the art. For example, the potency of the compounds of the present application can be evaluated with an SSAO Activity Assay. Briefly, compounds of the present application can be applied to recombinant hSSAO, hMAO-A, and hMAO-B isoforms and the amine oxidase activity of the enzymes are measured after the addition and subsequent oxidation of the luminogenic substrate (e.g., with the MAO-Glo assay kit from Promega). The IC50 can be calculated, for example, by fitting the dose response curve using a 4-parameter non-linear regression routine.
(§2) Amine oxidase activity of recombinant hSSAO, hMAO-A, and hMAO-B isoforms are measured using the MAO-Glo assay kit (Promega, V1402). Ten nL test compounds (with DMSO as vehicle, 0.1% v/v for hSSAO, hMAO-A and hMAO-B) were added into assay plates by Echo, and pre-incubated with 5 μL of enzyme for 30 mins at room temperature before the addition of 5 μL of luminogenic substrate. The substrate concentration is 40 μM for human recombinant SSAO, 40 μM for human recombinant MAO-A, and 4 μM for human recombinant MAO-B. The hSSAO and hMAO-A assays were conducted in the MAO-A reaction buffer in the kit, and the MAO-B assay was conducted in the MAO-B reaction buffer. Oxidation of the substrate was conducted for 1 hr, before the addition of detecting reagent according the manufacture's protocol. The IC50 value of the tested compounds was calculated by fitting the dose response curve using a 4-parameter non-linear regression routine.

Another assay has as its target recombinant hMAO-A (Homo sapiens (Human), UniProt P21397). Briefly: MAO-A activity assay (MAO-Glo assay kit). The settings on record: 40 μM substrate, 30 mins pre-incubation. As for the experimental part:
as §1, §2

The target in the next assay is recombinant hMAO-B (Homo sapiens (Human), UniProt P27338). Briefly: MAO-B activity assay (MAO-Glo assay kit). Particulars: 4 μM substrate, 30 mins pre-incubation. Here is the method:
as §1, §2

SMILES strings stand for the structures.

Chain of recombinant hSSAO (Q16853 whole entry, canonical isoform): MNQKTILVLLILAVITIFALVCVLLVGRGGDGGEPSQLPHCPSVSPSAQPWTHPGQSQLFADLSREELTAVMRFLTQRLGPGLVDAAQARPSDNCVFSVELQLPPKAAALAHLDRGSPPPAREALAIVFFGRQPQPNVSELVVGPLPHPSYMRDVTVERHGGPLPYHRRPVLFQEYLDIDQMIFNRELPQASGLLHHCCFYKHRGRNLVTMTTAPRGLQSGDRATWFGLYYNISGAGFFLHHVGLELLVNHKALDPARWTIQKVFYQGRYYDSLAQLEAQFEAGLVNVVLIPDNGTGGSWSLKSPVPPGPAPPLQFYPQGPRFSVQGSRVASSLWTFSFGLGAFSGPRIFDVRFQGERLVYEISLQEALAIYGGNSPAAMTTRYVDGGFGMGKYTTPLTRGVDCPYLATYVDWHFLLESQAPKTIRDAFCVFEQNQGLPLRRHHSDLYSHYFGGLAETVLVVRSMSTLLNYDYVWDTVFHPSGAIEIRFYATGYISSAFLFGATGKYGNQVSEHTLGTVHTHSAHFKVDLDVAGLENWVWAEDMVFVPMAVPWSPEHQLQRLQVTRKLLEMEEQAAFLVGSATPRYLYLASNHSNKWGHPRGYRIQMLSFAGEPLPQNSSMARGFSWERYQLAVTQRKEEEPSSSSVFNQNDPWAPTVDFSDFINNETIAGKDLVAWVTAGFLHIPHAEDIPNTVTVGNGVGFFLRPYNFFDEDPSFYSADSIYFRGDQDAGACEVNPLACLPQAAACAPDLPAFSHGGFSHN
Chain of recombinant hMAO-B (P27338 whole entry): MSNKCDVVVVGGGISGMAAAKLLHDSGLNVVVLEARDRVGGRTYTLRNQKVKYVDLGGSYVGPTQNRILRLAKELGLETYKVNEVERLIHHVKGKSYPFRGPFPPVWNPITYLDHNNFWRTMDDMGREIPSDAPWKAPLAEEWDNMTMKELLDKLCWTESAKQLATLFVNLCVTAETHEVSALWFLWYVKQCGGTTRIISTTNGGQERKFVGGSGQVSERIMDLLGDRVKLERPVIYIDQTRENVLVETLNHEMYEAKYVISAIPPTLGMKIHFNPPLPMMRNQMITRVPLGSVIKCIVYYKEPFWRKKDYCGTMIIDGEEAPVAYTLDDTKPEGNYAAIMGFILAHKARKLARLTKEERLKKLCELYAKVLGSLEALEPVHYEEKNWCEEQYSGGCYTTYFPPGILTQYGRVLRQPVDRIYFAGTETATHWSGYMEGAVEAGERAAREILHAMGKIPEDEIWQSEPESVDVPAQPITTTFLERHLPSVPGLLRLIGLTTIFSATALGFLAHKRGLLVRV
Chain of recombinant hMAO-A (P21397 whole entry): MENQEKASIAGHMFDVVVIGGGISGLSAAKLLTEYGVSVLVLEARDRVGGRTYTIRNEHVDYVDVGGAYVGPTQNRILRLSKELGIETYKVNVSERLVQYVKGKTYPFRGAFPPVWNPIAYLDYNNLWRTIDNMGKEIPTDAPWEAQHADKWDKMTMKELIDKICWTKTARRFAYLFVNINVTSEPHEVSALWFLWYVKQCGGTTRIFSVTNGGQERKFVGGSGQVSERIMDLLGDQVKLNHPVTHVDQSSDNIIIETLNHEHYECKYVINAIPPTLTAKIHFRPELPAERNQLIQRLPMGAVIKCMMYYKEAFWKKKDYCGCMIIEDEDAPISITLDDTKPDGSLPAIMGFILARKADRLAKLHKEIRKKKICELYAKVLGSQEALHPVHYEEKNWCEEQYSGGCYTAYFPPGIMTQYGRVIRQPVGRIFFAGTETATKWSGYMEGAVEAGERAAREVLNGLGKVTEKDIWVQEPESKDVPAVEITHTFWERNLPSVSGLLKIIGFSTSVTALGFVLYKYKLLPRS

Turning to `NC/C(=C\F)COc1ccc(S(=O)(=O)CC2CCN(C(=O)CC3CC3)CC2)cc1` [Compound 48, (E)-1-(4-(((4-((2-(aminomethyl)-3-fluoroallyl)oxy)phenyl)sulfonyl)methyl)piperidin-1-yl)-2-cyclopropylethan-1-one], the figures for the IC50 on recombinant hSSAO, at recombinant hMAO-A and on recombinant hMAO-B were 0.02 to 0.1 µM, greater than 30 µM and greater than 30 µM, respectively.

Turning to `NC/C(=C\F)COc1ccc(S(=O)(=O)CN2Cc3ccccc3C2=O)cc1` [Compound 118, (E)-2-(((4-((2-(aminomethyl)-3-fluoroallyl)oxy)phenyl)sulfonyl)methyl)isoindolin-1-one], the figures for the IC50 at recombinant hSSAO, on recombinant hMAO-A and at recombinant hMAO-B were 0.02 to 0.1 µM, less than 10 µM and less than 10 µM, respectively.

As to `NC/C(=C\F)COc1ccc(S(=O)(=O)CC2CCN(C(=O)C3(C(F)(F)F)CC3)CC2)cc1` [Compound 49, (E)-(4-(((4-((2-(aminomethyl)-3-fluoroallyl)oxy)phenyl)sulfonyl)methyl)piperidin-1-yl)(1-(trifluoromethyl)cyclopropyl) methanone], the IC50 was 0.02 to 0.1 µM at recombinant hSSAO, greater than 30 µM on recombinant hMAO-A and greater than 30 µM on recombinant hMAO-B.

For the compound `CC1(C)CCC(=O)N1CS(=O)(=O)c1ccc(OC/C(=C/F)CN)cc1Cl` [Compound 124, (E)-1-(((4-((2-(aminomethyl)-3-fluoroallyl)oxy)-2-chlorophenyl)sulfonyl)methyl)-5,5-dimethylpyrrolidin-2-one], the results for the IC50 at recombinant hSSAO, at recombinant hMAO-A and on recombinant hMAO-B were 0.02 to 0.1 µM, greater than 30 µM and greater than 30 µM, respectively.

As to `NC/C(=C\F)COc1ccc(S(=O)(=O)CC2CCN(C(=O)C3CC(F)(F)C3)CC2)cc1` [Compound 51, (E)-(4-(((4-((2-(aminomethyl)-3-fluoroallyl)oxy)phenyl)sulfonyl)methyl)piperidin-1-yl)(3,3-difluorocyclobutyl)methanone], the values for the IC50 on recombinant hSSAO, at recombinant hMAO-A and on recombinant hMAO-B were 0.02 to 0.1 µM, greater than 30 µM and greater than 30 µM, respectively.

Turning to `NC/C(=C\F)COc1ccc(S(=O)(=O)CC2CCOCC2)c(Cl)c1` [compound 8, (E)-2-((3-chloro-4-(((tetrahydro-2H-pyran-4-yl)methyl)sulfonyl)phenoxy)methyl)-3-fluoroprop-2-en-1-amine], the IC50 at recombinant hSSAO fell in the range of 0.02 to 0.1 µM; on recombinant hMAO-A it was 10 to 30 µM.

`NC/C(=C\F)COc1ccc(S(=O)(=O)CC23CCC(C4(O)CC4)(CC2)CC3)cc1` [compound 18, (E)-1-(4-(((4-((2-(aminomethyl)-3-fluoroallyl)oxy)phenyl)sulfonyl)methyl)bicyclo[2.2.2]octan-1-yl)cyclopropan-1-ol]: the IC50 on recombinant hMAO-B was 10 to 30 µM.

Turning to `CC(C)C(=O)N1CCC(CS(=O)(=O)c2ccc(OC/C(=C/F)CN)cc2)C1` (stereo not drawn) [compound 99, (E)-1-(3-(((4-((2-(aminomethyl)-3-fluoroallyl)oxy)phenyl)sulfonyl)methyl)pyrrolidin-1-yl)-2-methylpropan-1-one], the figures for the IC50 on recombinant hSSAO and at recombinant hMAO-A were 0.02 to 0.1 µM and 10 to 30 µM, respectively.

In the case of `NC/C(=C\F)COc1ccc(S(=O)(=O)COCC2CCN(C(=O)C3(C(F)(F)F)CC3)CC2)cc1` [compound 35, (E)-(4-((((4-((2-(aminomethyl)-3-fluoroallyl)oxy)phenyl)sulfonyl)methoxy)methyl)piperidin-1-yl)(1-(trifluoromethyl)cyclopropyl)methanone], the values for the IC50 on recombinant hSSAO and on recombinant hMAO-B were 0.02 to 0.1 µM and 10 to 30 µM, respectively.

Regarding `COCS(=O)(=O)c1ccc(OC/C(=C/F)CN)cc1` [compound 28, (E)-3-fluoro-2-((4-((methoxymethyl)sulfonyl)phenoxy)methyl)prop-2-en-1-amine], on recombinant hMAO-B, the IC50 was in the range of 10 to 30 µM.

Take `CC(C)(C)C(=O)N1CCN(CS(=O)(=O)c2ccc(OC/C(=C/F)CN)cc2)C(=O)C1` [compound 133, (E)-1-(((4-((2-(aminomethyl)-3-fluoroallyl)oxy)phenyl)sulfonyl)methyl)-4-pivaloylpiperazin-2-one]: the IC50 at recombinant hSSAO lay within 0.1 to 0.5 µM; on recombinant hMAO-A, 10 to 30 µM.

For the compound `NC/C(=C\F)COc1ccc(S(=O)(=O)CC23CCC(O)(CC2)CC3)cc1` [compound 17, (E)-4-(((4-((2-(aminomethyl)-3-fluoroallyl)oxy)phenyl)sulfonyl)methyl)bicyclo[2.2.2]octan-1-ol], the IC50 was in the range of 0.02 to 0.1 µM on recombinant hSSAO and 10 to 30 µM on recombinant hMAO-B.

`CC(C)C(=O)N(C)CC(C)(C)CS(=O)(=O)c1ccc(OC/C(=C/F)CN)cc1` [compound 96, (E)-N-(3-((4-((2-(aminomethyl)-3-fluoroallyl)oxy)phenyl)sulfonyl)-2,2-dimethylpropyl)-N-methylisobutyramide]: on recombinant hMAO-B, the 50% inhibitory concentration (IC50) is 10 to 30 µM.

As to `NC/C(=C\F)COc1ccc(S(=O)(=O)Cc2ccc(C(=O)NC3CCC3)c(C(F)(F)F)c2)cc1` [compound 89, (E)-4-(((4-((2-(aminomethyl)-3-fluoroallyl)oxy)phenyl)sulfonyl)methyl)-N-cyclobutyl-2-(trifluoromethyl)benzamide], the IC50 at recombinant hSSAO was 0.1 to 0.5 µM; on recombinant hMAO-B, 10 to 30 µM.

Consider `CC(C)(C)C(=O)NC12CCC(CS(=O)(=O)c3ccc(OC/C(=C/F)CN)cc3)(CC1)C2` [compound 145, (E)-N-(4-(((4-((2-(aminomethyl)-3-fluoroallyl)oxy)phenyl)sulfonyl)methyl)bicyclo[2.2.1]heptan-1-yl)pivalamide], for which the figures for the IC50 at recombinant hSSAO and at recombinant hMAO-B were 0.02 to 0.1 µM and 10 to 30 µM, respectively.

Turning to `NC/C(=C\F)COc1ccc(S(=O)(=O)CC23CCC(C(=O)NC4CCC4)(CC2)CC3)cc1` [compound 64, (E)-4-(((4-((2-(aminomethyl)-3-fluoroallyl)oxy)phenyl)sulfonyl)methyl)-N-cyclobutylbicyclo[2.2.2]octane-1-carboxamide], on recombinant hMAO-B, the IC50 was in the range of 10 to 30 µM.

With `CC1(CS(=O)(=O)c2ccc(OC/C(=C/F)CN)cc2)CCN(C(=O)C2(C)CC2)CC1` [compound 57, (E)-(4-(((4-((2-(aminomethyl)-3-fluoroallyl)oxy)phenyl)sulfonyl)methyl)-4-methylpiperidin-1-yl)(1-methylcyclopropyl)methanone], the IC50 at recombinant hSSAO was in the range of 0.02 to 0.1 µM; at recombinant hMAO-A, 10 to 30 µM.

For the compound `N#CC1(CS(=O)(=O)c2ccc(OC/C(=C/F)CN)cc2)CCOCC1` [compound 12, (E)-4-(((4-((2-(aminomethyl)-3-fluoroallyl)oxy)phenyl)sulfonyl)methyl)tetrahydro-2H-pyran-4-carbonitrile], the half-maximal inhibitory concentration (IC50) at recombinant hSSAO was in the range of 0.02 to 0.1 µM; on recombinant hMAO-A, 10 to 30 µM.

`NC/C(=C\F)COc1ccc(S(=O)(=O)CC2CCN(C(=O)C34CC(F)(C3)C4)CC2)cc1` [compound 40, (E)-(4-(((4-((2-(aminomethyl)-3-fluoroallyl)oxy)phenyl)sulfonyl)methyl)piperidin-1-yl)(3-fluorobicyclo[1.1.1]pentan-1-yl)methanone]: the IC50 on recombinant hSSAO lay within 0.02 to 0.1 µM; at recombinant hMAO-A, 10 to 30 µM.

With `NC/C(=C\F)COc1ccc(S(=O)(=O)CC23CC(C(=O)NC4CCC4)(C2)C3)cc1` [compound 138, (E)-3-(((4-((2-(aminomethyl)-3-fluoroallyl)oxy)phenyl)sulfonyl)methyl)-N-cyclobutylbicyclo[1.1.1]pentane-1-carboxamide], the concentration for half-maximal inhibition (IC50) at recombinant hSSAO was 0.02 to 0.1 µM.

As for `COCCOCS(=O)(=O)c1ccc(OC/C(=C/F)CN)cc1` [compound 29, (E)-3-fluoro-2-((4-(((2-methoxyethoxy)methyl)sulfonyl)phenoxy)methyl)prop-2-en-1-amine], the IC50 on recombinant hSSAO was 0.02 to 0.1 µM.

Regarding `CC(C)N1CCN(CS(=O)(=O)c2ccc(OC/C(=C/F)CN)cc2)C(=O)C1` [compound 135, (E)-1-(((4-((2-(aminomethyl)-3-fluoroallyl)oxy)phenyl)sulfonyl)methyl)-4-isopropylpiperazin-2-one], the IC50 on recombinant hSSAO lay within 0.02 to 0.1 µM.

On to `CC1CCN(C23CCC(CS(=O)(=O)c4ccc(OC/C(=C/F)CN)cc4)(CC2)CC3)C1=O` (stereo not drawn) [compound 83, (E)-1-(4-(((4-((2-(aminomethyl)-3-fluoroallyl)oxy)phenyl)sulfonyl)methyl)bicyclo[2.2.2]octan-1-yl)-3-methylpyrrolidin-2-one], for which the IC50 at recombinant hMAO-B fell in the range of 10 to 30 µM.

Take `CCN(CC(C)(C)CS(=O)(=O)c1ccc(OC/C(=C/F)CN)cc1)C(=O)C(C)C` [compound 98, (E)-N-(3-((4-((2-(aminomethyl)-3-fluoroallyl)oxy)phenyl)sulfonyl)-2,2-dimethylpropyl)-N-ethylisobutyramide]: the IC50 lay within 0.02 to 0.1 µM on recombinant hSSAO and 10 to 30 µM on recombinant hMAO-B.

As to `NC/C(=C\F)COc1ccc(S(=O)(=O)CC23CCC(NC(=O)C4CC4)(CC2)CC3)cc1` [compound 76, (E)-N-(4-(((4-((2-(aminomethyl)-3-fluoroallyl)oxy)phenyl)sulfonyl)methyl)bicyclo[2.2.2]octan-1-yl)cyclopropanecarboxamide], the IC50 at recombinant hMAO-B was in the range of 10 to 30 µM.

In the case of `CC1(C(=O)N2CCN(CS(=O)(=O)c3ccc(OC/C(=C/F)CN)cc3)C(=O)C2)CCC1` [compound 134, (E)-1-(((4-((2-(aminomethyl)-3-fluoroallyl)oxy)phenyl)sulfonyl)methyl)-4-(1-methylcyclobutane-1-carbonyl)piperazin-2-one], the figures for the 50% inhibitory concentration (IC50) at recombinant hSSAO and on recombinant hMAO-A were 0.1 to 0.5 µM and 10 to 30 µM, respectively.

The term IC50 denotes the concentration that gives 50% inhibition.
